Results reported in patent US11873298B2, “Compounds and uses thereof” (JANSSEN PHARMACEUTICA NV, priority 2017, dated 2024).

Each compound was assayed against T1, SCD5 (Homo sapiens, UniProt Q86SK9) (assay: Growth inhibition of humanized yeast strain expressing SCD5 as sole desaturase). Settings: humanized yeast strain expressing SCD5.
T1 construct: host or cells: S. cerevisiae ole1Δ strain (W303 pdr1Δ pdr3Δ background), plasmid pRS316 with TDH3 promoter and CYC1 terminator
T1 sequence (Q86SK9 1-330): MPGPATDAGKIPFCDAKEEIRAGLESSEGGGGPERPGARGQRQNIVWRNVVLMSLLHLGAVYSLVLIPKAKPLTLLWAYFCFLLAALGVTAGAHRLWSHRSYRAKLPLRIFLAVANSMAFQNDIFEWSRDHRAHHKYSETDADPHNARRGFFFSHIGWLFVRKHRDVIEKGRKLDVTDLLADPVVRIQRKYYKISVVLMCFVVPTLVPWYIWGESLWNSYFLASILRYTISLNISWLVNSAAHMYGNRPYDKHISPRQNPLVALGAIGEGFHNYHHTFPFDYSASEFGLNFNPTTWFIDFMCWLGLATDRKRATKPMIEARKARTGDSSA
Assay type: cell-based
Protocol: Strain oleΔ (yeast ole1 deletion mutant) was constructed by deleting OLE1 with NAT-MX6 in BY4741, amplifying the deletion cassette from the genomic DNA of the resulting strain with primers flanking the ORF by 1000 bp upstream and downstream, transforming the resulting deletion cassette into W303 pdr1Δ pdr3Δ, and plating transformants on YPD media containing G418 (200 μg/mL) and nourseothricin ([…]) with 0.01% TWEEN®-20 and 0.5 mM oleic and palmitoleic acids.
The coding sequence of yeast OLE1 was also cloned into this plasmid). These clones were then transformed into the ole1Δ strain and plated on CSM-Ura media (CSM lacking uracil) with 2% glucose (w/v) and independent colonies were isolated and amplified.
All compound profiling experiments were performed using the same basic protocol. Different genetic backgrounds (e.g., gene deletions) or conditions (e.g., addition of oleic and palmitoleic acid) were replaced as indicated below.
Yeast were cultured using standard techniques in complete synthetic media (CSM) and yeast nitrogen base supplemented with 2% (w/v) carbon source (glucose, raffinose, or galactose) to regulate the expression of the toxic disease protein. An initial starter culture was inoculated in 3 mL CSM-Glucose media and incubated overnight in a 30° C. shaker incubator (225 rpm). Saturated morning cultures were then diluted 1:20 in fresh CSM-Raffinose media and grown for 6 h to an OD600 (optical density) of ˜0.4-0.8 at 30° C. with shaking.
Compound administration was performed in two separate steps. First, 15 μL of CSM-Galactose (induces expression of toxic protein) was dispensed into clear 384 well assay plates using a MULTIDROP™ Combi reagent dispenser. […] The cultures described above were then diluted to a 2× concentration (0.03 and 0.08 for alpha-synuclein and ApoE, final ODsoo of 0.015 and 0.04) in CSM-Galactose. For wild-type and Ole1/SCD1/SCD5 plasmid-containing strains, the 2× cell density was 0.02. […] For 96-well assays (FIGS. 1A and 1B), compound dilutions in DMSO were generated in 96 well plates and 1 μL was manually pipetted into 96 well clear bottom assay plates.
For experiments using a plasmid-borne copy of Ole1, SCD1, or SCD5 (FIGS. 3B, 6, and 7), media lacking uracil (SX-Ura, where X is glucose, raffinose, or galactose), was used for all steps of the compound profiling protocol to ensure its maintenance throughout the assay.
After yeast delivery, assay plates were incubated under humidified conditions at 30° C. for 24 to 40 h. ApoE4 rescue experiments were stopped at 24 h, aSyn experiments at 40 h, Ole1 at 24 h, and SCD1/SCD5 at 40 h. The growth of yeast was monitored by reading the ODsoo of each well using a microplate reader (Perkin Elmer EnVision™).

Compared with `CC(C)n1ncc2ccc(-c3noc(C4CCN(C(=O)c5ccc(F)cc5)CC4)n3)cc21` [Compound 544], `CC(C)n1ncc2ccc(-c3noc(C4CCN(C(=O)c5ccc(Cl)c(F)c5)CC4)n3)cc21` [Compound 541] is higher in IC50: 10000 nM for the first, over 45000 nM for the second.

`COC(=O)N[C@H]1CC[C@@H](c2nc(-c3ccc4c(C)nn(C)c4c3)no2)CC1` [Compound 550] and `CC(C)n1ncc2ccc(-c3noc([C@H]4CC[C@H](NC(=O)OC(C)(C)C)CC4)n3)cc21` [Compound 537] cannot be ordered by IC50: over 45000 nM for the first, over 45000 nM for the second.

Compared with `CC(C)n1ncc2ccc(-c3nc(C4CCN(C(=O)c5ccc(Cl)cc5)CC4)no3)cc21` [Compound 505], `CC(C)n1ncc2ccc(-c3nc(C4CCN(C(=O)c5ccccn5)CC4)no3)cc21` [Compound 499] is 1.6-fold higher in IC50: 669 nM for the first, 1100 nM for the second.

Going from `CC(C)N1C(=O)CCc2ccc(-c3noc(C4CCN(C(=O)OC(C)(C)C)CC4)n3)cc21` [Compound 572] to `Cc1nn(C)c2cc(-c3noc(C4CCN(C(=O)CC5CN(C(=O)OC(C)(C)C)C5)CC4)n3)ccc12` [Compound 502], the IC50 rises from 15000 nM to 38900 nM (2.6-fold).

`CC(C)n1ncc2ccc(-c3noc(C4CCN(C(=O)c5ccc(Cl)cn5)CC4)n3)cc21` [Compound 586] and `CC(C)n1ncc2ccc(-c3noc(C4CCN(C(=O)c5ncccc5Cl)CC4)n3)cc21` [Compound 587] are within 1.5-fold of each other in IC50: 3770 nM for the first, 4920 nM for the second.

Compared with `CC(C)n1ncc2ccc(-c3noc([C@H]4CC[C@H](N)CC4)n3)cc21` [Compound 596], `CC(C)n1ncc2ccc(-c3noc(C4CCN(C(=O)c5nccs5)CC4)n3)cc21` [Compound 549] is lower in IC50: over 45000 nM for the first, 1210 nM for the second.

Compared with `CC(C)n1ncc2ccc(N3CC4(CCN(C(=O)c5ccccc5Cl)CC4)C3)cc21` [Compound 534], `CC(C)n1ncc2ccc(-c3noc(C4CCN(C(=O)c5ccsc5Cl)CC4)n3)cc21` [Compound 575] is 7.9-fold lower in IC50: 36800 nM for the first, 4680 nM for the second.

Compared with `O=C(c1ccccc1)N1CCC(c2nc(-c3ccc4cnn(C5COC5)c4c3)no2)CC1` [Compound 564], `CC1(OC(=O)N2CCC(c3nc(-c4ccc5cnn(C6COC6)c5c4)no3)CC2)CC1` [Compound 576] is 150-fold lower in IC50: 4230 nM for the first, 28 nM for the second.

`N#Cc1cccc(N2C[C@H](C(=O)N3CCC(c4nc(-c5ccc6cnn(C7COC7)c6c5)no4)CC3)CC2=O)c1` [Compound 600] and `N#Cc1cccc(N2C[C@@H](C(=O)N3CCC(c4nc(-c5ccc6cnn(C7COC7)c6c5)no4)CC3)CC2=O)c1` [Compound 599] cannot be ordered by IC50: over 45000 nM for the first, over 45000 nM for the second.

Going from `Cc1noc2cc(-c3noc(C4CCN(C(=O)CC5(C)CC5)CC4)n3)ccc12` [Compound 591] to `CC1(CC(=O)N2CCC(c3nc(-c4ccc5cnn(C6COC6)c5c4)no3)CC2)CC1` [Compound 559], the IC50 falls from over 45000 nM to 1190 nM.

Going from `CC(C)n1ncc2ccc(-c3noc(C4CCN(C(=O)CNC(=O)c5cccc(C#N)c5)CC4)n3)cc21` [Compound 556] to `CC(C)OC(=O)N1CCC(c2nc(-c3ccc4oc(=O)n(C(C)C)c4c3)no2)CC1` [Compound 507], the IC50 falls from over 45000 nM to 2440 nM.

Compared with `Cc1nn(C)c2cc(-c3noc(C4CCN(c5nc(C(C)C)no5)CC4)n3)ccc12` [Compound 581], `CC(C)n1ncc2ccc(-c3noc(N4C[C@H]5CN(C(=O)CC(C)(C)C)C[C@H]5C4)n3)cc21` [Compound 497] is lower in IC50: over 45000 nM for the first, 11300 nM for the second. The second is the more potent here.

With `CC(C)n1ncc2ccc(-c3noc(N4C[C@@H]5CN(C(=O)CC(C)(C)C)C[C@H]5C4)n3)cc21` [Compound 569] the IC50 was over 45000 nM.

Same assay, conditions: yeast strain expressing human SCD5 as sole desaturase; Table 8

Compared with `CC1(OC(=O)N2CCC(c3noc(-c4cc(C5CCOC5)ccn4)n3)CC2)CC1` (stereo not drawn) [Compound 1205], `CC1(OC(=O)N2CCC(c3noc(-c4cccc(C5CCOC5)n4)n3)CC2)CC1` (stereo not drawn) [Compound 1197] is 54-fold higher in IC50: 330 nM for the first, 17900 nM for the second.

Compared with `CC(C)CC(=O)N1CCC(c2noc(-c3cnc4cnn(C5COC5)c4c3)n2)CC1` [Compound 1214], `O=C(C1CC1)N1CCC(c2noc(-c3cnc4cnn(C5CCOC5)c4c3)n2)CC1` (stereo not drawn) [Compound 1251] is 13-fold lower in IC50: 390 nM for the first, 30 nM for the second.

First: CC(C)(C)OC(=O)N1CCC(c2noc(-c3ccnc(-c4cocn4)c3)n2)CC1 [Compound 1293]
Second: CC(C)(C)OC(=O)N1CCC(c2noc(-c3ccnc(N4CCC(F)(F)C4)c3)n2)CC1 [Compound 1200]
The IC50 of the first is 2.3-fold higher: 490 nM for the first, 210 nM for the second.

Compared with `O=C(C1CCC1)N1CCC(c2noc(-c3ccnc(N4CCC(F)(F)C4)c3)n2)CC1` [Compound 1246], `O=C(C1CC1)N1CCC(c2noc(-c3ccnc(N4CCC(F)(F)C4)c3)n2)CC1` [Compound 1247] is 2.6-fold higher in IC50: 400 nM for the first, 1050 nM for the second.

Compared with `COC(=O)C(O)Cn1ncc2ccc(-c3nc(C4CCN(C(=O)OC(C)(C)C)CC4)no3)cc21` (stereo not drawn) [Compound 1244], `CC1CN(c2cc(-c3nc(C4CCN(C(=O)OC(C)(C)C)CC4)no3)ccc2F)CC(C)O1` (stereo not drawn) [Compound 1282] is 3.5-fold lower in IC50: 760 nM for the first, 220 nM for the second. The second is the more potent here.

Going from `CC1(OC(=O)N2CCC(c3noc(N4CCc5cnn(C6COC6)c5C4)n3)CC2)CC1` [Compound 1224] to `COC(=O)N1CCC(c2noc(N3CCc4cnn(C(C)C)c4C3)n2)CC1` [Compound 1260], the IC50 rises from 60 nM to 250 nM (4.2-fold). The first is the more potent here.

Compared with `CC(C)C(=O)N1CCC(c2cc(-c3cc4c(cn3)cnn4C3COC3)on2)CC1` [Compound 1226], `CC1(C(=O)N2CCC(c3cc(-c4cc5c(cn4)cnn5C4COC4)on3)CC2)CC1` [Compound 1237] is 3.5-fold higher in IC50: 20 nM for the first, 70 nM for the second.

Going from `CC1(OC(=O)N2CCC(c3noc(-c4ccc(C5CCOC5)nc4)n3)CC2)CC1` (stereo not drawn) [Compound 1268] to `CC(C)(C)OC(=O)N1CCC(c2noc(-c3ccc(C4CCOC4)nc3)n2)CC1` (stereo not drawn) [Compound 1262], the IC50 falls from 32600 nM to 14100 nM (2.3-fold).

`CCC(=O)N1CCC(c2noc(-c3cc(N4CCOCC4)c(F)cn3)n2)CC1` [Compound 1276] and `CC(C)(C)OC(=O)N1CCC(c2noc(-c3cc(N4CCOCC4)ccn3)n2)CC1` [Compound 1288] are within 1.5-fold of each other in IC50: 4680 nM for the first, 5550 nM for the second.

First: O=C(N1CCC(c2noc(-c3cc(C4CCOC4)ncc3F)n2)CC1)C1(F)CCC1 (stereo not drawn) [Compound 1275]
Second: CC(C)(C)OC(=O)N1CCC(c2noc(-c3cc(C4CCOC4)ncc3F)n2)CC1 (stereo not drawn) [Compound 1267]
The IC50 of the first is 130-fold lower: 20 nM for the first, 2650 nM for the second. The first is the more potent here.

First: CC(C)(C)OC(=O)N1CCN(c2cc(-c3ccc4cnn(C5COC5)c4n3)on2)CC1 [Compound 1228]
Second: CC(C)(C)OC(=O)N1CCC(c2noc(-c3ccc(C#N)c(N4CCOCC4)c3)n2)CC1 [Compound 1290]
The IC50 of the first is 3.8-fold higher: 1950 nM for the first, 520 nM for the second.

Going from `CC1(OC(=O)N2CCC(c3noc(-c4cncc(C5CCOC5)c4)n3)CC2)CC1` (stereo not drawn) [Compound 1206] to `CC(C)C(=O)N1CCC(c2noc(-c3cncc(C4CCOC4)c3)n2)CC1` (stereo not drawn) [Compound 1199], the IC50 rises from 320 nM to 3780 nM (12-fold). The first is the more potent here.

Compared with `CC(C)(C)OC(=O)N1CCC(c2noc(-c3cnnc(C4CCOC4)c3)n2)CC1` (stereo not drawn) [Compound 1234], `CC1(OC(=O)N2CCC(c3noc(-c4cc(C5CCOC5)c(F)cn4)n3)CC2)CC1` (stereo not drawn) [Compound 1298] is 16-fold lower in IC50: 490 nM for the first, 30 nM for the second. The second is the more potent here.

First: CCC(=O)N1CCC(c2noc(-c3cc(C4CCOC4)ccn3)n2)CC1 (stereo not drawn) [Compound 1281]
Second: O=C(C1CCC1)N1CCC(c2noc(-c3cc(C4CCOC4)ccn3)n2)CC1 (stereo not drawn) [Compound 1285]
The IC50 of the first is 7.8-fold higher: 6990 nM for the first, 900 nM for the second. The second is the more potent here.

Compared with `Cn1cc2c(n1)CN(c1nc(C3CCN(C(=O)OC(C)(C)C)CC3)no1)CC2` [Compound 1272], `CC1(OC(=O)N2CCC(c3noc(-c4cncc(N5CCC(F)(F)C5)c4)n3)CC2)CC1` [Compound 1198] is 4.4-fold lower in IC50: 7540 nM for the first, 1720 nM for the second. The second is the more potent here.

First: O=C(C1CCC1)N1CCC(c2noc(-c3cc(C4CCOC4)c(F)cn3)n2)CC1 (stereo not drawn) [Compound 1297]
Second: O=C(C1CC1)N1CCC(c2noc(-c3cc(C4CCOC4)c(F)cn3)n2)CC1 (stereo not drawn) [Compound 1296]
The IC50 of the first is 1.6-fold lower: 160 nM for the first, 250 nM for the second. The first is the more potent here.

Going from `O=C(OC1CCC1)N1CCC(c2noc(-c3cc(C4CCOC4)ncn3)n2)CC1` (stereo not drawn) [Compound 1312] to `CCC(=O)N1CCC(c2noc(-c3ccnc(N4CCC(F)(F)C4)c3)n2)CC1` [Compound 1248], the IC50 rises from 20 nM to 6930 nM (350-fold).

`CC(C)C(=O)N1CCC(c2noc(-c3ccc(F)c(N4CCOC5(CC5)C4)c3)n2)CC1` [Compound 1302] was tested, and the IC50 was 900 nM.
